Like-named read-outs stand apart in the source and are kept apart here.
What was measured:
Tg DHFR = molecular target: T1, Tg DHFR (Toxoplasma gondii, UniProt Q07422); assay: biochemical; assay type: biochemical; details: for Selectivity Ratio: RL DHFR/Tg: IC50 RL DHFR divided by IC50 Tg DHFR
T1 sequence (Q07422 1-610): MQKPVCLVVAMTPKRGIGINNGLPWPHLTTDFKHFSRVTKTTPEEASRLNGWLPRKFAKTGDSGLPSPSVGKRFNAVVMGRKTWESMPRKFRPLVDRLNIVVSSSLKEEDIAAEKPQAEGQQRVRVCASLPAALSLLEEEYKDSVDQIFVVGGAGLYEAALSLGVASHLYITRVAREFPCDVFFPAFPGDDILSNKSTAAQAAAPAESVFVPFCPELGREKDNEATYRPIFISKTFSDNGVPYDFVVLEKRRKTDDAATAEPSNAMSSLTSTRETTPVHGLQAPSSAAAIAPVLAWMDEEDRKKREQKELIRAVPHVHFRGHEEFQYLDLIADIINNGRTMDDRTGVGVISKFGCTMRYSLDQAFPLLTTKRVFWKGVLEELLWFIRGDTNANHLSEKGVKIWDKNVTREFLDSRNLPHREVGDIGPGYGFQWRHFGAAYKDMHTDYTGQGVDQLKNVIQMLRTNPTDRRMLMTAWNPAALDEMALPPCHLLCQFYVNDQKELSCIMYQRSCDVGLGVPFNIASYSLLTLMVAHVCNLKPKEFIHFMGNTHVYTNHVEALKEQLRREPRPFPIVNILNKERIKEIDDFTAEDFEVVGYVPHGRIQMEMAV
Procedure: (§1) The selectivity ratio is a measure of the selectivity of a compound for Pc DHFR or Tg DHFR and is expressed as the IC50 value of the DHFR from rate liver (RL) divided by the IC50 value of either the Pc DHFR or the Tg DHFR, depending on which organism the compounds are being tested against. For example, the selectivity ratio of a compound is calculated by the following formula: [formula]

Pc DHFR [1] = molecular target: T2, Pc DHFR (Pneumocystis carinii, UniProt P16184); assay: biochemical
T2 sequence (P16184 1-206): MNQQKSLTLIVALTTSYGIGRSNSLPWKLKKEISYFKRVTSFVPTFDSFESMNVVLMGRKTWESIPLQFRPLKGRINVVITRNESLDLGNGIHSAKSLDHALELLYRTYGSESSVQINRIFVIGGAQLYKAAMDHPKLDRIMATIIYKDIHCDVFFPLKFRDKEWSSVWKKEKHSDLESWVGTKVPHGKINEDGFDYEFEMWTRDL

RL DHFR = molecular target: T3, RL DHFR (Rattus norvegicus, UniProt Q920D2); assay: Inhibition of DHFR from rat liver; assay type: biochemical
T3 construct: Toxoplasmosis gondii (Tg) and rat liver (RL); from tissue; host or cells: rat liver
T3 sequence (Q920D2 1-187): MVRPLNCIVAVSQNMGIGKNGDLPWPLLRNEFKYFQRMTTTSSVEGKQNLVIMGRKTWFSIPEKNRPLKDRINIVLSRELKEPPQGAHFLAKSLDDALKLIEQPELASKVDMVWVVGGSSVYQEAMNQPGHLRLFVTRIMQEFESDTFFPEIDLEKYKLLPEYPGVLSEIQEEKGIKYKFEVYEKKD
Procedure: as §1

Pc DHFR [2] = molecular target: T2, Pc DHFR; assay type: biochemical; details: for Selectivity Ratio: RL DHFR/Pc DHFR: Table 7, IC50 RL DHFR divided by IC50 Pc DHFR
Procedure: as §1

[3] = Table 7, read-out: Tg DHFR IC50
[4] = Table 7, read-out: Pc DHFR IC50
[5] = Table 7, read-out: RL DHFR IC50
[6] = Table 25, read-out: Inhibitor Concentrations (IC50) rlDHFR
[7] = Table 16, read-out: Pc DHFR IC50
[8] = Table 25, read-out: Inhibitor Concentrations (IC50) pcDHFR
[9] = Table 25, read-out: Inhibitor Concentrations (IC50) tgDHFR
[10] = Table 16, read-out: Tg DHFR IC50
[11] = Table 16, read-out: RL DHFR IC50

COc1cc(NCc2c[nH]c3nc(N)nc(N)c23)cc(OC)c1OC [Compound 1, 2,4-diamino-5-[(3′,4′,5′-trimethoxyanilino)methyl]pyrrolo[2,3-d]pyrimidine]
Selectivity Ratio: RL DHFR/Tg (Tg DHFR; Table 7): 7.0
IC50 (Tg DHFR; [3]): 8.1 µM
IC50 (Pc DHFR [1]; [4]): > 23 µM
IC50 (RL DHFR; [5]): 56.3 µM
Selectivity Ratio: RL DHFR/Pc DHFR (Pc DHFR [2]): <2.4

COc1ccc(NCc2c[nH]c3nc(N)nc(N)c23)cc1OC [Compound 2, 2,4-diamino-5-[(3′,4′-dimethoxyanilino)methyl]pyrrolo[2,3-d]pyrimidine]
IC50 (Tg DHFR; [3]): 4.3 µM
IC50 (Pc DHFR [1]; [4]): 119 µM
IC50 (RL DHFR; [5]): 116 µM

COc1ccc(NCc2c[nH]c3nc(N)nc(N)c23)cc1 [Compound 3, 2,4-diamino-5-[(4′-methoxyanilino)methyl]pyrrolo[2,3-d]pyrimidine]
Selectivity Ratio: RL DHFR/Tg (Tg DHFR; Table 7): 10.5
IC50 (Tg DHFR; [3]): 6 µM
IC50 (Pc DHFR [1]; [4]): 279 µM
IC50 (RL DHFR; [5]): 63 µM
Selectivity Ratio: RL DHFR/Pc DHFR (Pc DHFR [2]): 0.23

COc1ccc(OC)c(NCc2cnc3[nH]c(N)nc(N)c2-3)c1 [Compound 4, 2,4-diamino-5-[(2′,5′-dimethoxyanilino)methyl]pyrrolo[2,3-d]pyrimidine]
IC50 (Tg DHFR; [3]): 1.7 µM
IC50 (RL DHFR; [5]): 156 µM

CCOc1ccc(OCC)c(NCc2c[nH]c3nc(N)nc(N)c23)c1 [Compound 5, 2,4-diamino-5-[(2′,5′-diethoxyanilino)methyl]pyrrolo[2,3-d]pyrimidine]
IC50 (Tg DHFR; [3]): 5.3 µM
IC50 (Pc DHFR [1]; [4]): > 21 µM
IC50 (RL DHFR; [5]): 70 µM

Nc1nc(N)c2c(CNc3ccc(Cl)c(Cl)c3)c[nH]c2n1 [Compound 6, 2,4-diamino-5-[(3′,4′dichloroanilino)methyl]pyrrolo[2,3-d]pyrimidine]
IC50 (Tg DHFR; [3]): 1.4 µM
IC50 (Pc DHFR [1]; [4]): 35.3 µM
IC50 (RL DHFR; [5]): 14.4 µM

Nc1nc(N)c2c(CNc3ccccc3)cnc-2[nH]1 [Compound 8, 2,4-diamino-5-(anilinomethyl)pyrrolo[2,3-d]pyrimidine]
Selectivity Ratio: RL DHFR/Tg (Tg DHFR; Table 7): >65
IC50 (Tg DHFR; [3]): 3.9 µM
Selectivity Ratio: RL DHFR/Pc DHFR (Pc DHFR [1]; Table 7, IC50 RL DHFR divided by IC50 Pc DHFR): >1
IC50 (Pc DHFR [1]; [4]): 252 µM
IC50 (RL DHFR; [5]): > 252 µM

Nc1nc(N)c2c(CSc3ccccc3)coc2n1 [Compound 159, 2-4-Diamino-5-[(phenylthio)methyl]furo[2,3-d]pyrimidine]
IC50 (RL DHFR; [6]): 252 µM

Nc1nc(N)c2c(CSc3cccc4ccccc34)coc2n1 [Compound 160, 2,4-Diamino-5-[(1-naphthylthio)methyl]furo[2,3-d]pyrimidine]
IC50 (RL DHFR; [6]): 23 µM

Nc1nc(N)c2c(CSc3ccc4ccccc4c3)coc2n1 [Compound 161, 2,4-Diamino-5-[(2-naphthylthio)methyl]furo[2,3-d]pyrimidine]
IC50 (Pc DHFR [1]): 0.66 µM
IC50 (Pc DHFR [1]; [7]): 0.65 µM
IC50 (Pc DHFR [1]; [8]): 0.65 µM
IC50 (RL DHFR; [6]): 12.3 µM

Nc1nc(N)c2c(CNc3cccc4ccccc34)coc2n1 [Compound 162, 2,4-Diamino-5-[(1-naphthylamino)methyl]furo[2,3-d]pyrimidine]
IC50 (Tg DHFR; [9]): 37 µM
IC50 (Pc DHFR [1]; [7]): 13.5 µM
IC50 (Pc DHFR [1]; [8]): 13.5 µM

Nc1nc(N)c2c(CNc3ccc4ccccc4c3)coc2n1 [Compound 163, 2-4-Diamino-5-[(2-naphthylamino)methyl]furo[2,3-d]pyrimidine]
Selectivity ratio rl/tg (Tg DHFR; IC50 rlDHFR/IC50 tgDHFR): 0.96
Selectivity Ratio RL/Tg (Tg DHFR; Table 16): 0.96
IC50 (Tg DHFR; [10]): 38 µM
IC50 (Tg DHFR; [9]): 38 µM
IC50 (Pc DHFR [1]; [7]): 41 µM
IC50 (Pc DHFR [1]; [8]): 41 µM
IC50 (RL DHFR; [11]): 36.5 µM
IC50 (RL DHFR; [6]): 36.5 µM
Selectivity ratio rl/pc (Pc DHFR [2]; IC50 rlDHFR/IC50 pcDHFR): 0.89
Selectivity Ratio RL/Pc (Pc DHFR [2]; Table 16): 0.89

Nc1nc(N)c2c(CNc3ccccc3Oc3ccccc3)coc2n1 [Compound 165, 2,4-Diamino-5-[(2′-phenoxyanilino)methyl]furo[2,3-d]pyrimidine]
IC50 (Tg DHFR; [10]): > 12 µM
IC50 (Tg DHFR; [9]): > 12 µM
IC50 (Pc DHFR [1]; [7]): > 12 µM
IC50 (Pc DHFR [1]; [8]): > 12 µM
IC50 (RL DHFR; [11]): > 12 µM
IC50 (RL DHFR; [6]): > 12 µM

Nc1nc(N)c2c(CNc3ccc(Oc4ccccc4)cc3)coc2n1 [Compound 166, 2,4-Diamino-5-[(4′-phenoxyanilino)methyl]furo[2,3-d]pyrimidine]
IC50 (Tg DHFR; [10]): 32.4 µM
IC50 (Tg DHFR; [9]): 32.4 µM

Reference: patent publication US6962920B2, “Pyrimidine derivatives and methods of making and using these derivatives” (Duquesne University of the Holy Ghost, priority 1992, dated 2005)
